Measurements: US20220298141A1, “ENZYME INHIBITORS” (KALVISTA PHARMACEUTICALS LIMITED, priority 2019, published 2022)

What follows are molecules tested against T1, Human Factor XIIa (Homo sapiens, UniProt P00748) (assay: Determination of Factor XIIa inhibitory activity in vitro (fluorogenic substrate H-DPro-Phe-Arg-AFC)). Details: Human Factor XIIa (Enzyme Research Laboratories), 25° C., read-out: Human FXIIa IC50.
T1 construct: purchased Enzyme Research Laboratories
T1 sequence (P00748 373-615 limits assumed): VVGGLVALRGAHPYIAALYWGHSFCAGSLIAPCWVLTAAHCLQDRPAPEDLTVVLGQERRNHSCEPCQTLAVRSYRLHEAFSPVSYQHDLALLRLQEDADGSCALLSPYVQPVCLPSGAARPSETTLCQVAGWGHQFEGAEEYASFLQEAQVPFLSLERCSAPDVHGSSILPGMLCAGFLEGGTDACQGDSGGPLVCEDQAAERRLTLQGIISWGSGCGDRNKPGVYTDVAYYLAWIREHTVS
T1 sequence (P00748 20-372 partner limits assumed): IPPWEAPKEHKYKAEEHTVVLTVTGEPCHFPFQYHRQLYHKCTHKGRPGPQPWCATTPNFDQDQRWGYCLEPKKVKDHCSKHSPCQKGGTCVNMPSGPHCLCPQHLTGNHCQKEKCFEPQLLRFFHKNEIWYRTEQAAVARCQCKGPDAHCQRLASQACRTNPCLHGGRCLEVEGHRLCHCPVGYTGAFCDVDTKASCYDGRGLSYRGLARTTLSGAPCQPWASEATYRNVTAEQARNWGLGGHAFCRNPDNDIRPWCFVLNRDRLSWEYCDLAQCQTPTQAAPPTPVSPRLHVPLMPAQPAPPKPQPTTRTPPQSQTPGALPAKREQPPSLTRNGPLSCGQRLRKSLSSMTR
Assay type: biochemical
Procedure: Determination of the % Inhibition for FXIIa
Factor XIIa inhibitory activity in vitro was determined using standard published methods (see e.g. Shori et al., Biochem. Pharmacol., 1992, 43, 1209; Baeriswyl et al., ACS Chem. Biol., 2015, 10 (8) 1861; Bouckaert et al., European Journal of Medicinal Chemistry 110 (2016) 181). Human Factor XIIa (Enzyme Research Laboratories) was incubated at 25° C. with the fluorogenic substrate H-DPro-Phe-Arg-AFC and various concentrations of the test compound. Residual enzyme activity (initial rate of reaction) was determined by measuring the […] and the IC50 value for the test compound was determined.

Row | Structure (SMILES) | IC50
1 | Nc1nccc2cc(CNC(=O)c3cc(Cl)cnc3Nc3ccccc3)ccc12 [Example 1.04] | 10 to 40 µM
2 | CS(=O)(=O)c1cccc(CNc2ncc(Cl)cc2C(=O)NCc2ccc3c(N)nccc3c2)c1 [Example 1.06] | 3 to 10 µM
3 | CN(C)c1cccc(CNc2ncc(Cl)cc2C(=O)NCc2ccc3c(N)nccc3c2)c1 [Example 1.07] | 10 to 40 µM
4 | Nc1nccc2cc(CNC(=O)c3cc(Cl)cnc3NCCN3CCOCC3)ccc12 [Example 1.11] | 3 to 10 µM
5 | CN1CCC(CNc2ncc(Cl)cc2C(=O)NCc2ccc3c(N)nccc3c2)CC1 [Example 1.13, N-[(1-Amino-6-isoquinolyl)methyl]-5-chloro-2-[(1-methyl-4-piperidyl)methylamino]pyridine-3-carboxamide] | 0.3 to 1 µM
6 | Nc1nccc2cc(CNC(=O)c3cc(Cl)cnc3NCCOc3ccccc3)ccc12 [Example 1.14] | 3 to 10 µM
7 | Nc1nccc2cc(CNC(=O)c3cc(Cl)cnc3NCCCOc3ccccc3)ccc12 [Example 1.15] | 10 to 40 µM
8 | Nc1nccc2cc(CNC(=O)c3cc(Cl)cnc3NCCn3ccnc3)ccc12 [Example 1.16] | 3 to 10 µM
9 | Nc1nccc2cc(CNC(=O)c3cc(Cl)cnc3NCCN3CCS(=O)(=O)CC3)ccc12 [Example 1.17] | 3 to 10 µM
10 | CC(=O)NCCCNc1ncc(Cl)cc1C(=O)NCc1ccc2c(N)nccc2c1 [Example 1.20] | 3 to 10 µM
11 | Nc1nccc2cc(CNC(=O)c3cc(Cl)cnc3NCc3ccc4c(c3)OCO4)ccc12 [Example 1.21] | 10 to 40 µM
12 | CN1CCCc2cc(CNc3ncc(Cl)cc3C(=O)NCc3ccc4c(N)nccc4c3)ccc21 [Example 1.22] | 3 to 10 µM
13 | Nc1nccc2cc(CNC(=O)c3cc(Cl)cnc3NCc3cccnc3)ccc12 [Example 1.24] | 3 to 10 µM
14 | CC(C)N1CCN(CCCNc2ncc(Cl)cc2C(=O)NCc2ccc3c(N)nccc3c2)CC1 [Example 1.26] | 1 to 3 µM
15 | Nc1nccc2cc(CNC(=O)c3cc(Cl)cnc3NCc3cccc(N4CCCCC4)c3)ccc12 [Example 1.27] | 10 to 40 µM
16 | Nc1nccc2cc(CNC(=O)c3cc(Cl)cnc3NCC3CCN(c4ccncc4)CC3)ccc12 [Example 1.28] | 0.3 to 1 µM
17 | Nc1nccc2cc(CNC(=O)c3cc(Cl)cnc3NCCN3CCCC3=O)ccc12 [Example 1.29] | 3 to 10 µM
18 | Nc1nccc2cc(CNC(=O)c3cc(Cl)cnc3NCC3CCN(Cc4ccccc4)CC3)ccc12 [Example 1.31] | 1 to 3 µM

Row | Structure (SMILES) | IC50
19 | Nc1nccc2cc(CNC(=O)c3cc(Cl)cnc3NCc3cccc(N4CCCC4=O)c3)ccc12 [Example 1.33] | 10 to 40 µM
20 | Nc1nccc2cc(CNC(=O)c3cc(Cl)cnc3NCc3ccc(CN4CCCC4=O)cc3)ccc12 [Example 1.34] | 10 to 40 µM
21 | COc1ccc(Nc2ncc(Cl)cc2C(=O)NCc2ccc3c(N)nccc3c2)cc1 [Example 1.37] | 10 to 40 µM
22 | CN(C)c1ccc(Nc2ncc(Cl)cc2C(=O)NCc2ccc3c(N)nccc3c2)cc1 [Example 1.39] | 10 to 40 µM
23 | CN(C)c1cccc(Nc2ncc(Cl)cc2C(=O)NCc2ccc3c(N)nccc3c2)c1 [Example 1.40] | 10 to 40 µM
24 | CN(C)c1ccccc1Nc1ncc(Cl)cc1C(=O)NCc1ccc2c(N)nccc2c1 [Example 1.41] | 10 to 40 µM
25 | CN1CCC(CNc2cccc(C(=O)NCc3ccc4c(N)nccc4c3)n2)CC1 [Example 4.26] | 1 to 3 µM
26 | COc1ccc(CN(C)c2ncc(C(=O)NCc3ccc4c(N)nccc4c3)cc2Cl)cc1 [Example 8.02] | 10 to 40 µM
27 | CC(C)N1CCN(c2ncc(C(=O)NCc3ccc4c(N)nccc4c3)cc2Cl)CC1 [Example 8.03] | 10 to 40 µM
28 | Nc1nccc2cc(CNC(=O)c3cnc(N4CC(O)C4)c(Cl)c3)ccc12 [Example 8.04] | 10 to 40 µM
29 | CN1CCC(N(C)c2ncc(C(=O)NCc3ccc4c(N)nccc4c3)cc2Cl)CC1 [Example 8.06, N-((1-aminoisoquinolin-6-yl)methyl)-5-chloro-6-(methyl(1-methylpiperidin-4-yl)amino)nicotinamide] | 1 to 3 µM
30 | CN(c1ncc(C(=O)NCc2ccc3c(N)nccc3c2)cc1Cl)C1CCOCC1 [Example 8.07] | 3 to 10 µM
31 | Nc1nccc2cc(CNC(=O)c3cnc(NC4CCCC4)c(Cl)c3)ccc12 [Example 11.01, N-((1-aminoisoquinolin-6-yl)methyl)-5-chloro-6-(cyclopentylamino)nicotinamide] | 10 to 40 µM
32 | CN(C)c1ccc(CNc2ncc(C(=O)NCc3ccc4c(N)nccc4c3)cc2Cl)cc1 [Example 11.02] | 3 to 10 µM
33 | Nc1nccc2cc(CNC(=O)c3cnc(NCC4CCOCC4)c(Cl)c3)ccc12 [Example 11.03] | 3 to 10 µM
34 | CN1CCN(c2ccccc2CNc2ncc(C(=O)NCc3ccc4c(N)nccc4c3)cc2Cl)CC1 [Example 11.08] | 10 to 40 µM
35 | Nc1nccc2cc(CNC(=O)c3cnc(NCCN4CCCCC4)c(Cl)c3)ccc12 [Example 11.14] | 3 to 10 µM
36 | Nc1nccc2cc(CNC(=O)c3cnc(NCc4ccccn4)c(Cl)c3)ccc12 [Example 11.18] | 10 to 40 µM

Second part, the molecule after the results:

Row | IC50 | Structure (SMILES)
37 | 10 to 40 µM | Nc1nccc2cc(CNC(=O)c3cc(Cl)cnc3NC3CCCC3)ccc12 [Example 1.01]
38 | 10 to 40 µM | Nc1nccc2cc(CNC(=O)c3cc(Cl)cnc3NCc3ccccc3)ccc12 [Example 1.02]
39 | 10 to 40 µM | Nc1nccc2cc(CNC(=O)c3cc(Cl)cnc3NCC3CCOCC3)ccc12 [Example 1.03]
40 | 10 to 40 µM | COc1ccc(CNc2ncc(Cl)cc2C(=O)NCc2ccc3c(N)nccc3c2)cc1 [Example 1.05]
41 | 3 to 10 µM | COCCNc1ncc(Cl)cc1C(=O)NCc1ccc2c(N)nccc2c1 [Example 1.08]
42 | 1 to 3 µM | CN(C)CCNc1ncc(Cl)cc1C(=O)NCc1ccc2c(N)nccc2c1 [Example 1.09]
43 | 1 to 3 µM | Nc1nccc2cc(CNC(=O)c3cc(Cl)cnc3NCCN3CCCCC3)ccc12 [Example 1.10]
44 | 1 to 3 µM | CN1CCN(CCNc2ncc(Cl)cc2C(=O)NCc2ccc3c(N)nccc3c2)CC1 [Example 1.12]
45 | 10 to 40 µM | CC(C)CCNc1ncc(Cl)cc1C(=O)NCc1ccc2c(N)nccc2c1 [Example 1.18]
46 | 3 to 10 µM | CC(=O)NCCNc1ncc(Cl)cc1C(=O)NCc1ccc2c(N)nccc2c1 [Example 1.19]
47 | 3 to 10 µM | Nc1nccc2cc(CNC(=O)c3cc(Cl)cnc3NCc3ccncc3)ccc12 [Example 1.23]
48 | 0.3 to 1 µM | CC(C)N(CCNc1ncc(Cl)cc1C(=O)NCc1ccc2c(N)nccc2c1)C(C)C [Example 1.25]
49 | 3 to 10 µM | CN1CCN(c2ccccc2CNc2ncc(Cl)cc2C(=O)NCc2ccc3c(N)nccc3c2)CC1 [Example 1.30]
50 | 10 to 40 µM | Nc1nccc2cc(CNC(=O)c3cc(Cl)cnc3NCc3ccc(N4CCCCC4=O)cc3)ccc12 [Example 1.32]
51 | 10 to 40 µM | CN1CCC(N(C)c2ncc(Cl)cc2C(=O)NCc2ccc3c(N)nccc3c2)CC1 [Example 1.35]
52 | 1 to 3 µM | CN1CCN(CCCNc2ncc(Cl)cc2C(=O)NCc2ccc3c(N)nccc3c2)CC1 [Example 1.36]

Row | IC50 | Structure (SMILES)
53 | 10 to 40 µM | COc1ccccc1Nc1ncc(Cl)cc1C(=O)NCc1ccc2c(N)nccc2c1 [Example 1.38]
54 | 10 to 40 µM | CS(=O)(=O)Nc1cccc(Nc2ncc(Cl)cc2C(=O)NCc2ccc3c(N)nccc3c2)c1 [Example 1.42]
55 | 10 to 40 µM | CN1CCCN(c2ncc(C(=O)NCc3ccc4c(N)nccc4c3)cc2Cl)CC1 [Example 8.01]
56 | 10 to 40 µM | CN(C)CCCOc1cccc(CN(C)c2ncc(C(=O)NCc3ccc4c(N)nccc4c3)cc2Cl)c1 [Example 8.05]
57 | 10 to 40 µM | Nc1nccc2cc(CNC(=O)c3cnc(Nc4ccccc4)c(Cl)c3)ccc12 [Example 11.04]
58 | 1 to 3 µM | CN(C)CCCNc1ncc(Cl)cc1C(=O)NCc1ccc2c(N)nccc2c1 [Example 11.05]
59 | 3 to 10 µM | CN(C)CCOc1ccc(CNc2ncc(Cl)cc2C(=O)NCc2ccc3c(N)nccc3c2)cc1 [Example 11.06]
60 | 1 to 3 µM | CN(C)CCCOc1cccc(CNc2ncc(Cl)cc2C(=O)NCc2ccc3c(N)nccc3c2)c1 [Example 11.07]
61 | 3 to 10 µM | Nc1nccc2cc(CNC(=O)c3cnc(NCC4CCN(Cc5ccccc5)CC4)c(Cl)c3)ccc12 [Example 11.10]
62 | 10 to 40 µM | COc1ccc(CNc2ncc(C(=O)NCc3ccc4c(N)nccc4c3)cc2Cl)cc1 [Example 11.11]
63 | 3 to 10 µM | CS(=O)(=O)c1cccc(CNc2ncc(C(=O)NCc3ccc4c(N)nccc4c3)cc2Cl)c1 [Example 11.12]
64 | 10 to 40 µM | Nc1nccc2cc(CNC(=O)c3cnc(NC4CCOCC4)c(Cl)c3)ccc12 [Example 11.13]
65 | 10 to 40 µM | CN1CCN(CCNc2ncc(C(=O)NCc3ccc4c(N)nccc4c3)cc2Cl)CC1 [Example 11.15]
66 | 3 to 10 µM | CN1CCC(CNc2ncc(C(=O)NCc3ccc4c(N)nccc4c3)cc2Cl)CC1 [Example 11.16]
67 | 10 to 40 µM | Nc1nccc2cc(CNC(=O)c3cnc(NCCn4ccnc4)c(Cl)c3)ccc12 [Example 11.17]
68 | 10 to 40 µM | Nc1nccc2cc(CNC(=O)c3cnc(NCc4cccnc4)c(Cl)c3)ccc12 [Example 11.19]
